According to US8569493B2 (Santen Pharmaceutical Co., Ltd., priority 2007, dated 2013):

Each compound was assayed against T1, Recombinant human GR (Homo sapiens, UniProt P04150) (assay: GR competitor assay by fluorescence polarization (binding activity to glucocorticoid receptor)). Conditions: 20 μM test compound solution, 10 μL per well plus 5 μL 4×GS1 and 5 μL 4×GR; 2 to 4 hours at room temperature; ratio of 100% or more is indicated by 100%.
T1 construct: purchased Invitrogen P2816
T1 sequence (P04150 1-777): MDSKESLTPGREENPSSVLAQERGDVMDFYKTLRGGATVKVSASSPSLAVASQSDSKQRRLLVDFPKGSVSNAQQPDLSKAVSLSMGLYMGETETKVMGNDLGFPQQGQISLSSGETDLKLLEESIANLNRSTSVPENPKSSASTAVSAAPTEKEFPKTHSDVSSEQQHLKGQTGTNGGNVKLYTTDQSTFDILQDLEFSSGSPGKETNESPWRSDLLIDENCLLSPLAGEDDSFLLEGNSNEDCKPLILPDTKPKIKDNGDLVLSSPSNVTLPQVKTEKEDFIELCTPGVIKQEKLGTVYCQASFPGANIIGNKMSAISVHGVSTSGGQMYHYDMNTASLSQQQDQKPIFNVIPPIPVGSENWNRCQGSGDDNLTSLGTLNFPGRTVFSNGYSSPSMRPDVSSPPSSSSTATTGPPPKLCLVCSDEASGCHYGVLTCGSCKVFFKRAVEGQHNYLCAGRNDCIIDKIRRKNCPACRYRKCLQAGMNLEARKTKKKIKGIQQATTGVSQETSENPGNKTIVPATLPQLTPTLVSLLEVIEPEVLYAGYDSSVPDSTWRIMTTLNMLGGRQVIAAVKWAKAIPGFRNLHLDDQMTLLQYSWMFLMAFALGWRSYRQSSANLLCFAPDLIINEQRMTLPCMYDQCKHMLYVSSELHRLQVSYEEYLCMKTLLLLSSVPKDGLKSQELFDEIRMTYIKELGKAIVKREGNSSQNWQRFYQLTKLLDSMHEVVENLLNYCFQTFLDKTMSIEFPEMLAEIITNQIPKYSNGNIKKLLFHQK
Experimental: 1. Evaluation Test for Binding Activity to Glucocorticoid Receptor (hereinafter referred to as “GR”)
In order to evaluate a binding activity to GR, a receptor competitor assay was carried out by a fluorescence polarization method. In the assay, a GR competitor assay kit (manufactured by Invitrogen, cat No. P2816) was used, and a procedure was carried out according to the protocol attached to the kit. Hereinafter, the specific method will be described.
(Preparation of Reagents)
GR screening buffer: A buffer containing 10 mM potassium phosphate (pH 7.4), 20 mM sodium molybdate (Na2MoO4), 0.1 mM ethylene diamine tetraacetic acid (EDTA), 5 mM dithiothreitol (DTT), 0.1 mM stabilizing peptide and 2% dimethylsulfoxide was prepared.
4×GS1 solution: Fluormone™ GS1, which is a fluorescent glucocorticoid ligand, was diluted with GR screening buffer, whereby a 4 nM solution was prepared.
4×GR solution: Recombinant human GR was diluted with GR screening buffer, whereby a 16 nM solution was prepared.
(Preparation of Test Compound Solution)
After a test compound was dissolved in dimethylsulfoxide, it was diluted with GR screening buffer, whereby a 20 μM test compound solution was prepared.
(Test Method and Measurement Method)
1) The test compound solution was added in an amount of 10 μL into each well of a 384-well plate, and then, 4×GS1 solution and 4×GR solution were added in an amount of 5 μL into each well, respectively.
2) The plate was incubated in a dark place at room temperature for 2 to 4 hours.
3) By using a multimode plate reader, Analyst™ HT (manufactured by LJL Biosystems), fluorescence polarization of each well was measured. As the blank, a well containing GR screening buffer in place of the test compound and 4×GS1 solution was used.
4) The same procedure as that in the above 1) to 3) was carried out except that GR screening buffer was used in place of the test compound solution, and the obtained result was taken as the negative control.
5) The same procedure as that in the above 1) to 3) was carried out except that 2 mM dexamethasone was used in place of the test compound solution, and the obtained result was taken as the positive control.
(Calculation Equation of GR Binding Ratio)
A GR binding ratio (%) was calculated from the following equation. GR binding ratio(%)=100×[1−(fluorescence polarization of test compound solution−fluorescence polarization of positive control solution)/(fluorescence polarization of negative control solution−fluorescence polarization of positive control solution)] (Test Results and Discussion)

Row | Compound | inhibition at 10 µM [%]
1 | COc1cc(OS(C)(=O)=O)ccc1-c1ccc2c(c1COc1cc(F)ccc1C)N(C)C(=O)C(C)(C)N2 [Compound 1-1, 8-(5-Fluoro-2-methylphenoxymethyl)-7-(2-methoxy-4-methylsulfonyloxyphenyl)-1,3,3-trimethyl-3,4-dihydro-1H-quinoxalin-2-one] | 91
2 | COc1cc(OS(=O)(=O)c2ccccc2)ccc1-c1ccc2c(c1COc1cc(F)ccc1C)N(C)C(=O)C(C)(C)N2 [Compound 1-2] | 85
3 | CCCS(=O)(=O)Oc1ccc(-c2ccc3c(c2COc2cc(F)ccc2C)N(C)C(=O)C(C)(C)N3)c(OC)c1 [Compound 1-4] | 99
4 | COc1cc(OS(=O)(=O)c2ccco2)ccc1-c1ccc2c(c1COc1cc(F)ccc1C)N(C)C(=O)C(C)(C)N2 [Compound 1-5] | 95
5 | COc1cc(OS(C)(=O)=O)ccc1-c1ccc2c(c1COC(=O)c1ccc(C)s1)N(C)C(=O)C(C)(C)N2 [Compound 1-6] | 100
6 | COc1cc(OS(=O)(=O)c2ccccc2)ccc1-c1ccc2c(c1COC(=O)c1ccc(C)s1)N(C)C(=O)C(C)(C)N2 [Compound 1-7] | 86
7 | COc1cc(OS(=O)(=O)c2ccccc2C)ccc1-c1ccc2c(c1COc1cc(F)ccc1C)N(C)C(=O)C(C)(C)N2 [Compound 1-11] | 83
8 | CCCCS(=O)(=O)Oc1ccc(-c2ccc3c(c2COc2cc(F)ccc2C)N(C)C(=O)C(C)(C)N3)c(OC)c1 [Compound 1-12] | 100
9 | CCS(=O)(=O)Oc1ccc(-c2ccc3c(c2COc2cc(F)ccc2C)N(C)C(=O)C(C)(C)N3)c(OC)c1 [Compound 1-13] | 100
10 | COc1cc(OS(=O)(=O)C(C)C)ccc1-c1ccc2c(c1COc1cc(F)ccc1C)N(C)C(=O)C(C)(C)N2 [Compound 1-14] | 100
11 | COc1cccc(S(=O)(=O)Oc2ccc(-c3ccc4c(c3COc3cc(F)ccc3C)N(C)C(=O)C(C)(C)N4)c(OC)c2)c1 [Compound 1-15] | 82
12 | COc1cc(OS(=O)(=O)Cc2cccc(Cl)c2)ccc1-c1ccc2c(c1COc1cc(F)ccc1C)N(C)C(=O)C(C)(C)N2 [Compound 1-18] | 88
13 | COc1cc(OS(=O)(=O)Cc2ccc(Cl)cc2)ccc1-c1ccc2c(c1COc1cc(F)ccc1C)N(C)C(=O)C(C)(C)N2 [Compound 1-20] | 87
14 | COc1cc(OS(=O)(=O)CCC(F)(F)F)ccc1-c1ccc2c(c1COc1cc(F)ccc1C)N(C)C(=O)C(C)(C)N2 [Compound 1-22] | 91
15 | COc1cc(OS(=O)(=O)C2CC2)ccc1-c1ccc2c(c1COc1cc(F)ccc1C)N(C)C(=O)C(C)(C)N2 [Compound 1-23] | 94
16 | COc1cc(NS(C)(=O)=O)ccc1-c1ccc2c(c1COc1cc(F)ccc1C)N(C)C(=O)C(C)(C)N2 [Compound 1-25] | 92
17 | COc1cc(OS(=O)(=O)Cc2ccccc2Cl)ccc1-c1ccc2c(c1COc1cc(F)ccc1C)N(C)C(=O)C(C)(C)N2 [Compound 1-27] | 99
18 | COc1cc(OS(=O)(=O)C2CCCC2)ccc1-c1ccc2c(c1COc1cc(F)ccc1C)N(C)C(=O)C(C)(C)N2 [Compound 1-29] | 95
19 | COc1cc(OS(=O)(=O)C2CCCCC2)ccc1-c1ccc2c(c1COc1cc(F)ccc1C)N(C)C(=O)C(C)(C)N2 [Compound 1-30] | 92
20 | COc1cc(OS(=O)(=O)Cc2cccc(C)c2)ccc1-c1ccc2c(c1COc1cc(F)ccc1C)N(C)C(=O)C(C)(C)N2 [Compound 1-31] | 90
21 | COc1cc(OS(=O)(=O)C2CC2)ccc1-c1ccc2c(c1COC(=O)c1ccc(C)s1)N(C)C(=O)C(C)(C)N2 [Compound 1-32] | 96
22 | COc1cc(OS(=O)(=O)CCC(F)(F)F)ccc1-c1ccc2c(c1COC(=O)c1ccc(C)s1)N(C)C(=O)C(C)(C)N2 [Compound 1-33] | 95
23 | COc1cc(OS(=O)(=O)CC(C)C)ccc1-c1ccc2c(c1COC(=O)c1ccc(C)s1)N(C)C(=O)C(C)(C)N2 [Compound 1-34] | 100
24 | COc1ccc([N+](=O)[O-])cc1OCc1c(-c2ccc(OS(=O)(=O)CC(C)C)cc2OC)ccc2c1N(C)C(=O)C(C)(C)N2 [Compound 1-40] | 100
25 | COc1ccc([N+](=O)[O-])cc1OCc1c(-c2ccc(OS(=O)(=O)C3CCCC3)cc2OC)ccc2c1N(C)C(=O)C(C)(C)N2 [Compound 1-41] | 100
26 | COc1ccc([N+](=O)[O-])cc1OCc1c(-c2ccc(OS(=O)(=O)C(C)C)cc2OC)ccc2c1N(C)C(=O)C(C)(C)N2 [Compound 1-42] | 100
27 | COc1ccc([N+](=O)[O-])cc1OCc1c(-c2ccc(OS(=O)(=O)C3CC3)cc2OC)ccc2c1N(C)C(=O)C(C)(C)N2 [Compound 1-43] | 100

The remaining lines, values ahead:

Row | inhibition at 10 µM [%] | Compound
28 | 99 | COc1cc(OS(=O)(=O)C(F)(F)F)ccc1-c1ccc2c(c1COc1cc(F)ccc1C)N(C)C(=O)C(C)(C)N2 [Compound 1-3]
29 | 85 | COc1cc(OS(=O)(=O)c2ccccc2Cl)ccc1-c1ccc2c(c1COc1cc(F)ccc1C)N(C)C(=O)C(C)(C)N2 [Compound 1-8]
30 | 100 | COc1cc(OS(=O)(=O)Cc2ccccc2)ccc1-c1ccc2c(c1COc1cc(F)ccc1C)N(C)C(=O)C(C)(C)N2 [Compound 1-9]
31 | 100 | COC(=O)CCS(=O)(=O)Oc1ccc(-c2ccc3c(c2COc2cc(F)ccc2C)N(C)C(=O)C(C)(C)N3)c(OC)c1 [Compound 1-10]
32 | 68 | COc1cc(OS(=O)(=O)c2cccc(Cl)c2)ccc1-c1ccc2c(c1COc1cc(F)ccc1C)N(C)C(=O)C(C)(C)N2 [Compound 1-16]
33 | 65 | COc1cc(OS(=O)(=O)c2ccc(Cl)cc2)ccc1-c1ccc2c(c1COc1cc(F)ccc1C)N(C)C(=O)C(C)(C)N2 [Compound 1-17]
34 | 91 | COc1cc(OS(=O)(=O)Cc2ccc(C)cc2)ccc1-c1ccc2c(c1COc1cc(F)ccc1C)N(C)C(=O)C(C)(C)N2 [Compound 1-19]
35 | 92 | COc1cc(OS(=O)(=O)CC(C)C)ccc1-c1ccc2c(c1COc1cc(F)ccc1C)N(C)C(=O)C(C)(C)N2 [Compound 1-21]
36 | 95 | COc1cc(OS(=O)(=O)c2ccccc2F)ccc1-c1ccc2c(c1COc1cc(F)ccc1C)N(C)C(=O)C(C)(C)N2 [Compound 1-26]
37 | 91 | COc1cc(OS(=O)(=O)Cc2ccccc2C)ccc1-c1ccc2c(c1COc1cc(F)ccc1C)N(C)C(=O)C(C)(C)N2 [Compound 1-28]
38 | 95 | CCCS(=O)(=O)Oc1ccc(-c2ccc3c(c2COC(=O)c2ccc(C)s2)N(C)C(=O)C(C)(C)N3)c(OC)c1 [Compound 1-35]
39 | 99 | COc1cc(OS(=O)(=O)C(C)C)ccc1-c1ccc2c(c1COC(=O)c1ccc(C)s1)N(C)C(=O)C(C)(C)N2 [Compound 1-36]
40 | 94 | COc1cc(OS(=O)(=O)C2CCCC2)ccc1-c1ccc2c(c1COC(=O)c1ccc(C)s1)N(C)C(=O)C(C)(C)N2 [Compound 1-37]
41 | 100 | COc1ccc([N+](=O)[O-])cc1OCc1c(-c2ccc(OS(C)(=O)=O)cc2OC)ccc2c1N(C)C(=O)C(C)(C)N2 [Compound 1-38]
42 | 100 | COc1ccc([N+](=O)[O-])cc1OCc1c(-c2ccc(OS(=O)(=O)CCC(F)(F)F)cc2OC)ccc2c1N(C)C(=O)C(C)(C)N2 [Compound 1-39]
